Measurements: the kinase profiling compilation of Christmann-Franck et al. (2016)
Values joined by “and” are separate entries in the source; they are usually repeats but may differ in a detail not shown here. Equal values may be shown once.

Key:
Experiment in all cases: radiometric filter-binding kinase assay, Kinase HotSpot
Settings in all cases: compound 0.5 µM; ATP 10 µM
[1] = molecular target: MET (human) (UniProt P08581)
[2] = molecular target: PAK6 (human) (UniProt Q9NQU5)
[3] = molecular target: SRPK3 (human) (UniProt Q9UPE1)
SRPK3 (human), sequence (Q9UPE1 whole entry, looked up): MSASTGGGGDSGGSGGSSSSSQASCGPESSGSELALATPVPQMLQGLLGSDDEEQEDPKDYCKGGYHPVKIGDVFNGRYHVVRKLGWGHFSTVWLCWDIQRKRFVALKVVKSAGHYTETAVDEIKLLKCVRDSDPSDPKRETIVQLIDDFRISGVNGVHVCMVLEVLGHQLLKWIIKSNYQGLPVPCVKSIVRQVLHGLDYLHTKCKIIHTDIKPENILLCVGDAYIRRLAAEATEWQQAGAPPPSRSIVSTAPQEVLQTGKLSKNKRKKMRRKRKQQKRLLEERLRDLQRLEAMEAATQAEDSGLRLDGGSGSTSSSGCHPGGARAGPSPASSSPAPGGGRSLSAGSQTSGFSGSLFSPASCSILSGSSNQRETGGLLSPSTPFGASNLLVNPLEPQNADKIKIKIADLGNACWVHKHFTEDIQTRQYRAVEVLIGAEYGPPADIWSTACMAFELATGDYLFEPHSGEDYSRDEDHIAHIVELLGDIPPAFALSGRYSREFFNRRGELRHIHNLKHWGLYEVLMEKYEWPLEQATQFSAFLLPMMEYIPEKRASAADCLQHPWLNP

[4] = molecular target: ZAP70 (human) (UniProt P43403)
[5] = molecular target: MAPKAPK5 (human) (UniProt Q8IW41)
MAPKAPK5 (human), sequence (Q8IW41 whole entry, looked up): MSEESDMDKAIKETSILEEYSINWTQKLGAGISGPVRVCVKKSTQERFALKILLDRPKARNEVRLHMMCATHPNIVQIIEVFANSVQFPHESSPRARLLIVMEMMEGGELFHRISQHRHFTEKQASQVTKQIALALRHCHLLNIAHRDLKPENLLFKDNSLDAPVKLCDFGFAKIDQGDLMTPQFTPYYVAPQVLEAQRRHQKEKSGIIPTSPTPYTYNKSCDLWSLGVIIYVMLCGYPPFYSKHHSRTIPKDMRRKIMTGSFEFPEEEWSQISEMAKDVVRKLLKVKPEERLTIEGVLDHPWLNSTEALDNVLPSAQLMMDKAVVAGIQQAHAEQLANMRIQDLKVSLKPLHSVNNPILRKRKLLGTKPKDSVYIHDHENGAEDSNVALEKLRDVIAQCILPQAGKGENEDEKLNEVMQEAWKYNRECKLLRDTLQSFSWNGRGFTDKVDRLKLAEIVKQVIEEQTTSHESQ

[6] = molecular target: CDK3 CCNE1 (human) (UniProt Q00526+P24864)
[7] = molecular target: AKT1 (human) (UniProt P31749)
[8] = molecular target: TXK (human) (UniProt P42681)
[9] = molecular target: PDPK1 (human) (UniProt O15530)
PDPK1 (human), sequence (O15530 whole entry, looked up): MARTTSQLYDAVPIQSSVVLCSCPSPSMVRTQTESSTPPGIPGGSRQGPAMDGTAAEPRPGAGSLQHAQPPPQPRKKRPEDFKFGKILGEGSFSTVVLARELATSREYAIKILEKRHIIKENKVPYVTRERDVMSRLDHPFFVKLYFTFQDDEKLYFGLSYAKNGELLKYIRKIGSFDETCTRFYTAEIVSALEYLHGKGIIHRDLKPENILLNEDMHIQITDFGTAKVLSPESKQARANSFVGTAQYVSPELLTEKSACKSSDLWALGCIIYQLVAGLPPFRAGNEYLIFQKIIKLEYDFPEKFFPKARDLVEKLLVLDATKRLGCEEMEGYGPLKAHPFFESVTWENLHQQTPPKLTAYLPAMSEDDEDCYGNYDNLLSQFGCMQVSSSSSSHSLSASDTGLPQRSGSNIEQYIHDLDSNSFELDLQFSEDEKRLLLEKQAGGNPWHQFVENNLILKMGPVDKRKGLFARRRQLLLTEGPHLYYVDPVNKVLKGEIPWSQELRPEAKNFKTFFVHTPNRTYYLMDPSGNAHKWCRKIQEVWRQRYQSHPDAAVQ

[10] = molecular target: STK16 (human) (UniProt O75716)
[11] = molecular target: CDK1 CCNA2 (human) (UniProt P06493+P20248)
CDK1 CCNA2 (human), sequence (P06493 whole entry, looked up): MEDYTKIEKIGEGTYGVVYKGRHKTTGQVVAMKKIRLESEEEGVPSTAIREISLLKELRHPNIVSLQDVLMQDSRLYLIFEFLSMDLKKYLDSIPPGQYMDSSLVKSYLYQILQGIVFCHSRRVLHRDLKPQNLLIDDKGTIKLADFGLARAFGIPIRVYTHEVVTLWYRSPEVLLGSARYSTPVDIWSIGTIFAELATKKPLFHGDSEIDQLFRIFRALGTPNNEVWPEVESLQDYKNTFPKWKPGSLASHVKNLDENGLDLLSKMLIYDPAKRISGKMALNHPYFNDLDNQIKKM
CDK1 CCNA2 (human), sequence (P20248 whole entry, looked up): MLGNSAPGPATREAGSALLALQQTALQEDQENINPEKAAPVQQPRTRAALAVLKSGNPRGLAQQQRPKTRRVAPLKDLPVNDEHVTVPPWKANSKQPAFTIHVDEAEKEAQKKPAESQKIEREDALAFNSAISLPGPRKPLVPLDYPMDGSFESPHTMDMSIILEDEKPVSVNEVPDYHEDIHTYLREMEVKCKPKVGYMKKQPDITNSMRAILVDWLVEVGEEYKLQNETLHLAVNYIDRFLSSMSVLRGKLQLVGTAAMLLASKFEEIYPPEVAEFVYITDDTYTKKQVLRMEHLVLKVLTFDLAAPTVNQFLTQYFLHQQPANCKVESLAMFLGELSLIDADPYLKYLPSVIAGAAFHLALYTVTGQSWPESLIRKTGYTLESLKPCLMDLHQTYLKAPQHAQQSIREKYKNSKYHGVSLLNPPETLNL

[12] = molecular target: AURKA (human) (UniProt O14965)
[13] = molecular target: IGF1R (human) (UniProt P08069)
[14] = molecular target: MARK1 (human) (UniProt Q9P0L2)
[15] = molecular target: PRKCA (human) (UniProt P17252)
[16] = molecular target: ABL2 (human) (UniProt P42684)
[17] = molecular target: DYRK1B (human) (UniProt Q9Y463)
[18] = molecular target: RIPK2 (human) (UniProt O43353)
[19] = molecular target: RPS6KB1 (human) (UniProt P23443)
[20] = molecular target: OXSR1 (human) (UniProt O95747)
[21] = molecular target: IKBKB (human) (UniProt O14920)
IKBKB (human), sequence (O14920 whole entry, looked up): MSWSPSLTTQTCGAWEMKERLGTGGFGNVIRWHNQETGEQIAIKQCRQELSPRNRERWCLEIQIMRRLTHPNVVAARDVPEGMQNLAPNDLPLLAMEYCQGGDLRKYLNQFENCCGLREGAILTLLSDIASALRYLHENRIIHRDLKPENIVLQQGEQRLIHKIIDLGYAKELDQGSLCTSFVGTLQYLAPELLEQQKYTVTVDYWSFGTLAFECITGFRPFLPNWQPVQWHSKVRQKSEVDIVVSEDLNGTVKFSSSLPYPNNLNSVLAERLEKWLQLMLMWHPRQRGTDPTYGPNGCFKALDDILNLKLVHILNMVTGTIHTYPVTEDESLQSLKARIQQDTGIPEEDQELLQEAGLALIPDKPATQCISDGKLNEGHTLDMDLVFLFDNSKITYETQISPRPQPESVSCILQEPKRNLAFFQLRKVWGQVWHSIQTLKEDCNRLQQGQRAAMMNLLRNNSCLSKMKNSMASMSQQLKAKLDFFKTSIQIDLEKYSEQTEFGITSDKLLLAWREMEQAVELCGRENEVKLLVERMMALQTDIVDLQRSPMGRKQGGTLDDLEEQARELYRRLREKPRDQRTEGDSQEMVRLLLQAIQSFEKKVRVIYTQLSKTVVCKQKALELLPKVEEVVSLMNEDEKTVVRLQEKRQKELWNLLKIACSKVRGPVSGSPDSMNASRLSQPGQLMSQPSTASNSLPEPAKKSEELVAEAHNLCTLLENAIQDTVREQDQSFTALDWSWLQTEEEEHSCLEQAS

[22] = molecular target: CAMKK1 (human) (UniProt Q8N5S9)
[23] = molecular target: JAK3 JH1 JH2 (human) (UniProt P52333)
[24] = molecular target: MAPK9 (human) (UniProt P45984)
[25] = molecular target: CAMKK2 (human) (UniProt Q96RR4)
[26] = molecular target: LYN (human) (UniProt P07948)
LYN (human), sequence (P07948 whole entry, looked up): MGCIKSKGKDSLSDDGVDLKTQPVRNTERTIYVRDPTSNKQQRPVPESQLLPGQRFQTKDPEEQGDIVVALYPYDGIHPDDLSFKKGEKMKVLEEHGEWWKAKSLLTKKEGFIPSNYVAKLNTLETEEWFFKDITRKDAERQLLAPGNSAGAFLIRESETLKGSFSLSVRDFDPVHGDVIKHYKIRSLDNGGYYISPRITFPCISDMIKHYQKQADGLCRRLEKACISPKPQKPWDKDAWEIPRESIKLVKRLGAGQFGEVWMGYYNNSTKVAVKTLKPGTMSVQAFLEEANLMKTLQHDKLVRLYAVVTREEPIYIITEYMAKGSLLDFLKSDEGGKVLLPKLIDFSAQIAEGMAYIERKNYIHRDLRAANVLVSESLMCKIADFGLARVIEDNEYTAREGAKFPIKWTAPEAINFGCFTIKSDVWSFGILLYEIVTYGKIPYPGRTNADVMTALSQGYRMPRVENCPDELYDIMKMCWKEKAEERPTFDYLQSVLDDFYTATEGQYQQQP

[27] = molecular target: ULK3 (human) (UniProt Q6PHR2)
ULK3 (human), sequence (Q6PHR2 whole entry, looked up): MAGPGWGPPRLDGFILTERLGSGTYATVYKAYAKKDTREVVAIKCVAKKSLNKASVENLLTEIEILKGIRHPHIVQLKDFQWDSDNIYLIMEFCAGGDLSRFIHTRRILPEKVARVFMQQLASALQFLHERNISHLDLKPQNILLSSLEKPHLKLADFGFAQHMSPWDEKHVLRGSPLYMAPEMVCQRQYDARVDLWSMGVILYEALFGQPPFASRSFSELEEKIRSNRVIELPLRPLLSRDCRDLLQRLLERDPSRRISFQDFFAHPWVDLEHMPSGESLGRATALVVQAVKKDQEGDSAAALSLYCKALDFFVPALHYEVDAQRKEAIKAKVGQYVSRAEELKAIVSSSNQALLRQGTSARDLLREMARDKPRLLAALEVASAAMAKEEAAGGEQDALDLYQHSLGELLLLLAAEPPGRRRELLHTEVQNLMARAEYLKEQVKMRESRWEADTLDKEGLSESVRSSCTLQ

[28] = molecular target: PRKCB2 (human) (UniProt P05771)
PRKCB2 (human), sequence (P05771 whole entry, looked up): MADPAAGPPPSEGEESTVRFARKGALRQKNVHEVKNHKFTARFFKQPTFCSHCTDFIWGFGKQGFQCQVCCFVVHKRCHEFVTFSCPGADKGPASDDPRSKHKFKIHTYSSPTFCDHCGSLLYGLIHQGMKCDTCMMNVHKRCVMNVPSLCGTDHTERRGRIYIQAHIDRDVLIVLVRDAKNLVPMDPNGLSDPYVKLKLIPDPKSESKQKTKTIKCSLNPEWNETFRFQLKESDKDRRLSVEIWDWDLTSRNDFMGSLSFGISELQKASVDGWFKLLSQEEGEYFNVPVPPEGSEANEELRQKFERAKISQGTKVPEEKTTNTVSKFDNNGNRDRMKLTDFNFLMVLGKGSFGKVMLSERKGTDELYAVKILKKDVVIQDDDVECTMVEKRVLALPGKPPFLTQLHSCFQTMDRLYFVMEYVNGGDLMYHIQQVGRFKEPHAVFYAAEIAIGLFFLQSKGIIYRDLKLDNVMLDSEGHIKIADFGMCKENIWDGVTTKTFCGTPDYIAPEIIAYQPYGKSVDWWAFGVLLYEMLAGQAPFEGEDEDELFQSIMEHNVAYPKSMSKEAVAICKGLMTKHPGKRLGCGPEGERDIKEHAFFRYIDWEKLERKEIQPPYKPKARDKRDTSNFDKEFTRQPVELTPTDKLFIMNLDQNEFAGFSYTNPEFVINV

[29] = molecular target: PAK2 (human) (UniProt Q13177)
[30] = molecular target: TYK2 JH1 catalytic (human) (UniProt P29597)
[31] = molecular target: STK38 (human) (UniProt Q15208)
[32] = molecular target: MAP3K14 (human) (UniProt Q99558)
[33] = molecular target: RPS6KA3 KD1 KD2 (human) (UniProt P51812)
[34] = molecular target: NTRK1 (human) (UniProt P04629)
[35] = molecular target: PAK4 (human) (UniProt O96013)
[36] = molecular target: NEK1 (human) (UniProt Q96PY6)
[37] = molecular target: CAMK4 (human) (UniProt Q16566)
[38] = molecular target: SYK (human) (UniProt P43405)
[39] = molecular target: BRSK2 (human) (UniProt Q8IWQ3)
[40] = molecular target: PRKCH (human) (UniProt P24723)
[41] = molecular target: DCLK2 (human) (UniProt Q8N568)
[42] = molecular target: PTK6 (human) (UniProt Q13882)

Question: What does the source list for O=C1NC(=O)C(c2cn(CCCn3ccnc3)c3ccccc23)=C1Nc1ccccc1?
Answer: residual activity [1]: 100%; residual activity [2]: 105%; residual activity [3]: 92.5%; residual activity [4]: 104%; residual activity [5]: 96.4%; residual activity [6]: 90.9%; residual activity [7]: 101%; residual activity [8]: 95.3%; residual activity [9]: 80.3%; residual activity [10]: 110%; residual activity [11]: 88.9%; residual activity [12]: 78.8%; residual activity [13]: 95.3%; residual activity [14]: 93.6%; residual activity [15]: 32%; residual activity [16]: 91.8%; residual activity [17]: 56.3%; residual activity [18]: 84.3%; residual activity [19]: 42.7%; residual activity [20]: 97.2%; residual activity [21]: 110%; residual activity [22]: 96.3%; residual activity [23]: 7.97%; residual activity [24]: 101%; residual activity [25]: 51.3%; residual activity [26]: 103% and 96.4%; residual activity [27]: 84.7%; residual activity [28]: 4.29%; residual activity [29]: 88.5%; residual activity [30]: 83.4%; residual activity [31]: 99.1%; residual activity [32]: 96.1%; residual activity [33]: 3.85%; residual activity [34]: 104%; residual activity [35]: 97.8%; residual activity [36]: 114%; residual activity [37]: 103%; residual activity [38]: 99.9%; residual activity [39]: 93.6%; residual activity [40]: 29.7%; residual activity [41]: 96.3%

Question: What does the source list for Oc1cccc(-c2nc(N3CCOCC3)c3oc4ncccc4c3n2)c1?
Answer: residual activity [1]: 97.8%; residual activity [2]: 105%; residual activity [3]: 95%; residual activity [4]: 91.4%; residual activity [5]: 85.7%; residual activity [6]: 93.9%; residual activity [7]: 95.3%; residual activity [42]: 80.8%; residual activity [8]: 94.8%; residual activity [9]: 103%; residual activity [10]: 91.7%; residual activity [11]: 84.4%; residual activity [12]: 91.9%; residual activity [13]: 97.1%; residual activity [14]: 97.6%; residual activity [15]: 103%; residual activity [16]: 94.9%; residual activity [17]: 98.9%; residual activity [18]: 87.4%; residual activity [19]: 106%; residual activity [20]: 93.2%; residual activity [21]: 98.3%; residual activity [22]: 84.6%; residual activity [23]: 99%; residual activity [24]: 89.4%; residual activity [25]: 79.8%; residual activity [26]: 102% and 98.3%; residual activity [27]: 99.7%; residual activity [28]: 102%; residual activity [29]: 97.5%; residual activity [30]: 73.6%; residual activity [31]: 99%; residual activity [33]: 101%; residual activity [34]: 94.9%; residual activity [35]: 90.7%; residual activity [36]: 77.8%; residual activity [37]: 103%; residual activity [38]: 94.2%; residual activity [39]: 97.1%; residual activity [40]: 89.8%; residual activity [41]: 102%
